Activity calls are given as the source filed them. The calls are words filed in the database; no cut-off is given here.
Key:
[1] = target: T1, Androgen receptor (Homo sapiens) (UniProt P10275); experiment: Selective androgen receptor degradation activity at androgen receptor in human LNCaP cells assessed as down regulation of protein level at 1 uM after 24 hrs by Western blot analysis; format: cell-based
T1 sequence (whole entry): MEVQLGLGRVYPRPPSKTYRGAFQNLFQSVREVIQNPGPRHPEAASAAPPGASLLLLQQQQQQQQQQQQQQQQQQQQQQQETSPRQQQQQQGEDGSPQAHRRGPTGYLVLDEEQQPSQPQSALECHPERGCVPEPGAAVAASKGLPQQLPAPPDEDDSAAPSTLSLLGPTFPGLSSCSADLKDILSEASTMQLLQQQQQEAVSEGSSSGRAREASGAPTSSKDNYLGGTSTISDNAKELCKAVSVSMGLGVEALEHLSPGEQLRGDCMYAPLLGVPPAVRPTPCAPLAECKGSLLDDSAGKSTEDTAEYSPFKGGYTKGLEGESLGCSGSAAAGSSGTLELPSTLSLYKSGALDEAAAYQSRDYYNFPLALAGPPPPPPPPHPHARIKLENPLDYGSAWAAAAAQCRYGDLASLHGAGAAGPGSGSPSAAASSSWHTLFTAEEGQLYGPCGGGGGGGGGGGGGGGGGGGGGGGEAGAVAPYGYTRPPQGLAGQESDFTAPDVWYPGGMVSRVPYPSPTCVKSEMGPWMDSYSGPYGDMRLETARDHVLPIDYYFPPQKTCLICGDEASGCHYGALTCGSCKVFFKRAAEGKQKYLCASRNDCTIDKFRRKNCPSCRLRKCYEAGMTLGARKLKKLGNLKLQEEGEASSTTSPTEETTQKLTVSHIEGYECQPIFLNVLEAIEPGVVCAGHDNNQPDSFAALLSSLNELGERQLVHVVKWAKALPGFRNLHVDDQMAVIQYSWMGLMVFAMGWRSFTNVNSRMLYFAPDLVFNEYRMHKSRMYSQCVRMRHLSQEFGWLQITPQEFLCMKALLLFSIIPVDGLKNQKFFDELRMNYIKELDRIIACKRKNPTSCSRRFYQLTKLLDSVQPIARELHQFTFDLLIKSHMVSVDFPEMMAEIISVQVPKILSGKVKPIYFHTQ

[2] = test system: PC-3; experiment: Antiproliferative activity against androgen-negative human PC-3 cells assessed as cell growth inhibition measured after 72 hrs by SRB assay; format: functional, cell-based; details: PC-3, 72 h
[3] = target: T2, Progesterone receptor (Homo sapiens, UniProt P06401); experiment: Induction of downregulation of progesterone receptor in human T47D cells at 10 uM measured after 24 hrs by Western blot analysis; format: cell-based
T2 sequence (P06401 whole entry): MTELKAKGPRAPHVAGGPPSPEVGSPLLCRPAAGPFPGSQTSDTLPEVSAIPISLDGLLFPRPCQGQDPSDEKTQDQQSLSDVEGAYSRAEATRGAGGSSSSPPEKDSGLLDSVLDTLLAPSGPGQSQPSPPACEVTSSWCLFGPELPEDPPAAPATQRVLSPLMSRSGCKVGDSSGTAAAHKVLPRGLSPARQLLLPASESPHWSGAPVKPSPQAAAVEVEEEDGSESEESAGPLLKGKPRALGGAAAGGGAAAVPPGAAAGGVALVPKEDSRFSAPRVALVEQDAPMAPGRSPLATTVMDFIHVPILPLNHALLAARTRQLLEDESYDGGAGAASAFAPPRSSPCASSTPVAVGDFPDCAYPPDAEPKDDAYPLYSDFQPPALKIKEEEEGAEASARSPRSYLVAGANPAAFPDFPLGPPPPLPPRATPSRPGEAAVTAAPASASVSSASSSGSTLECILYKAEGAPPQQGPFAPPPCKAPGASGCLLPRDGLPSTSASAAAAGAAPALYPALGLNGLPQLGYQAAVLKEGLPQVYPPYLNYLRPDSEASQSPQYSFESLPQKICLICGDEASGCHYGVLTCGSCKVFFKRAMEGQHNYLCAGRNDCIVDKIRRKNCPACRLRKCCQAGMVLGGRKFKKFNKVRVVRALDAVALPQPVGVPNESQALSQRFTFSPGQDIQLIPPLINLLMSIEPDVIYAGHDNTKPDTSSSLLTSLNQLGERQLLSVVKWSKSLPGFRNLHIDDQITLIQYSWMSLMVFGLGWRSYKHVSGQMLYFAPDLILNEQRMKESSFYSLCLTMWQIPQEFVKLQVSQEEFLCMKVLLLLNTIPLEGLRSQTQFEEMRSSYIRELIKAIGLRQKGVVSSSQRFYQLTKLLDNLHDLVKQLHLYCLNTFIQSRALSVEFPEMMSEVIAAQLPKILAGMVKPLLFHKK

[4] = test system: LNCaP; experiment: Induction of cell cycle arrest in human LNCaP cells assessed as accumulation at G1 phase at 10 micromol/L after 24 hrs by RNase A/PI-staining based flow cytometric analysis (reference value: 47.99%); format: functional; details: dose 10 µmol/L, at 10 µM
[5] = target: Prostate-specific antigen (Homo sapiens) (UniProt P07288); experiment: Induction of downregulation of PSA (unknown orgin) human LNCaP cells at 2 uM after 24 hrs by Western blot analysis
[6] = test system: SGC-7901; experiment: Antiproliferative activity against androgen-positive human SGC-7901 cells assessed as cell growth inhibition measured after 72 hrs by SRB assay; format: functional, cell-based; details: SGC-7901, 72 h
[7] = test system: LNCaP; experiment: Induction of apoptosis in human LNCaP cells assessed as viable cells level at 10 micromol/L incubated for 24 hrs by Annexin V/PI staining staining based flow cytometry (reference value: 96.3%); format: functional; details: dose 10 µmol/L, at 10 µM
[8] = Cytotoxicity against androgen-negative human WPMY-1 cells assessed as cell growth inhibition measured after 72 hrs by SRB assay; format: cell-based; details: WPMY-1, 72 h
[9] = test system: LNCaP; experiment: Induction of apoptosis in human LNCaP cells assessed as late apoptotic cells level at 10 micromol/L incubated for 24 hrs by Annexin V/PI staining staining based flow cytometry (reference value: 0.940%); format: functional; details: dose 10 µmol/L, at 10 µM
[10] = test system: MCF7; experiment: Antiproliferative activity against androgen-positive human MCF7 cells assessed as cell growth inhibition measured after 72 hrs by SRB assay; format: functional, cell-based; details: MCF7, 72 h
[11] = test system: LNCaP C4-2B; experiment: Antiproliferative activity against androgen-sensitive positive human LNCaP C4-2B cells assessed as cell growth inhibition measured after 72 hrs by SRB assay; format: functional, cell-based
[12] = test system: LNCaP; experiment: Induction of cell cycle arrest in human LNCaP cells assessed as accumulation at S phase at 10 micromol/L after 24 hrs by RNase A/PI-staining based flow cytometric analysis (reference value: 20.69%); format: functional; details: dose 10 µmol/L, at 10 µM
[13] = test system: LNCaP; experiment: Induction of cell cycle arrest in human LNCaP cells assessed as accumulation at S phase at 2 micromol/L after 24 hrs by RNase A/PI-staining based flow cytometric analysis (reference value: 20.69%); format: functional; details: dose 2 µmol/L, at 2 µM
[14] = test system: LNCaP; experiment: Induction of cell cycle arrest in human LNCaP cells assessed as accumulation at G1 phase at 1 micromol/L after 24 hrs by RNase A/PI-staining based flow cytometric analysis (reference value: 47.99%); format: functional; details: dose 1 µmol/L, at 1 µM
[15] = test system: LNCaP; experiment: Induction of apoptosis in human LNCaP cells assessed as late cells level at 2 micromol/L incubated for 24 hrs by Annexin V/PI staining staining based flow cytometry (reference value: 0.940%); format: functional; details: dose 2 µmol/L, at 2 µM

Prostate-specific antigen (Homo sapiens), sequence (P07288 whole entry, looked up): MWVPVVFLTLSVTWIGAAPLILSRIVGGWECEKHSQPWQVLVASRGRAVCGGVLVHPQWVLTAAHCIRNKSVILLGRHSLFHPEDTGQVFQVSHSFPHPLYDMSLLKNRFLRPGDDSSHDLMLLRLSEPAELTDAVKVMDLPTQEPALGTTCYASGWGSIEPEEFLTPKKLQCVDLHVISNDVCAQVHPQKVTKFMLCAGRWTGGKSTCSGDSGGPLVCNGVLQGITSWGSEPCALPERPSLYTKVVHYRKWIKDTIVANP

## CC1(C)C(=O)N(c2ccc(C#N)c(C(F)(F)F)c2)C(=S)N1CCCCCn1cc(COCCOCCOC(=O)CC23CC4CC(CC(C4)C2)C3)nn1
[1]
  Activity: Active
[2]
  IC50: > 80 µM
[3]
  Activity: Active
[4]
  Activity: 74.56%
[5]
  Activity: Active
[6]
  IC50: 6.93 µM
[7]
  Activity: 79%
[8]
  IC50: > 80 µM
[9]
  Activity: 6.6%
[10]
  IC50: 50.5 µM
[11]
  IC50: 16.6 µM
[12]
  Activity: 16.11%
[13]
  Activity: 12.65%
[14]
  Activity: 59.3%
[15]
  Activity: 1.59%

— ChEMBL document CHEMBL4706528, “The design, synthesis and anti-tumor mechanism study of new androgen receptor degrader” (Eur J Med Chem, 2020)
